Converted amounts (≈) assume the structure as drawn.
Key:
Candida albicans = details: cited from earlier work
[1] = test system: Mycobacterium tuberculosis; details: cited from earlier work
[2] = test system: primary metastatic cells derived from breast cancer patients; experiment: activity against primary metastatic cells derived from breast cancer patients; assay type: cell-based, human; details: patients treated with multiple frontline chemotherapeutics
[3] = test system: mouse mammary tumor model; experiment: mouse mammary tumor model; assay type: in vivo
breast cancer = experiment: cancer-selective cell death with Zn2+; assay type: cell-based; details: caspase-independent mechanism

| Compound | MIC100 against Candida albicans (Candida albicans) [µM] | IC50 against Mycobacterium tuberculosis [1] [µg/mL] | efficacy against primary metastatic cells from breast cancer patients [2] | in vivo efficacy [3] | synergy with Zn2+ in inducing cancer-selective cell death (breast cancer) |
| --- | --- | --- | --- | --- | --- |
| COc1ccc(Cc2nc(NC3=NC(=O)N(C)C3=O)n(C)c2Cc2ccc(O)cc2)cc1 [Naamidine A] | 0.78 (≈ 0.338 µg/mL) | 0.41 (≈ 0.946 µM) | – | – | – |
| COc1ccc(-c2c(Cc3ccccc3)[nH]/c(=N\C(=O)c3ccccc3F)n2C)cc1 [ZNA] | – | – | effective | in vivo efficacy was established | synergizes strongly with Zn^2+ to induce cancer-selective cell death |

Source: US11339140B2, “Compositions and methods comprising substituted 2-aminoimidazoles” (Curza Global, LLC, priority 2017, dated 2022)
